{
  "source": "patent US20250280821A1",
  "about": "“PERFUSION AND METABOLIC RESTORATION OF ORGANS” (Bexorg, Inc., priority 2024, published 2025)",
  "tested_on": "tissue of the dorsomedial prefrontal cortex (dmPFC) of the brain 110",
  "test": "Raman spectroscopy of brain tissue during ex-vivo perfusion with rapamycin in the perfusate",
  "assay_type": "in vitro ADME, human",
  "details": "ex-vivo perfused brain",
  "excerpt": "As previously discussed, the perfusion system 100 also includes a Raman spectroscopy probe 172 that is coupled to or positioned near the brain housing 102 for performing Raman spectroscopy on the tissue of the brain 110 in real-time during perfusion of the brain 110. Once the brain 110 is fluidly coupled to the organ line 144 and is positioned inside the brain housing 102, the Raman spectroscopy probe 172 is positioned on the surface of the brain 110 and can be operated periodically throughout the perfusion process to perform Raman spectroscopy on the tissue of the brain 110 in real-time as the brain is perfused. […]\nThe data generated by the Raman spectroscopy probe 172 can be used to determine whether the pharmaceutical compound is capable of crossing the blood-brain barrier. The pharmaceutical compound can be determined as capable of crossing the blood-brain barrier in response to detecting that one or more chemical compounds corresponding to the pharmaceutical compound are present in the tissue of the brain 110 using the Raman spectroscopy probe 172. In addition, the percentage of the pharmaceutical compound taken up and metabolized by the brain 110 can be determined based on the concentration of one or more chemical compounds corresponding to the pharmaceutical compound that is detected in the tissue of the brain 110 by the Raman spectroscopy probe 172. […]",
  "data": [
    {"smiles": "CO[C@H]1C[C@@H]2CC[C@@H](C)[C@@](O)(O2)C(=O)C(=O)N2CCCC[C@H]2C(=O)O[C@H]([C@H](C)C[C@@H]2CC[C@@H](O)[C@H](OC)C2)CC(=O)[C@H](C)/C=C(\\C)[C@@H](O)[C@@H](OC)C(=O)[C@H](C)C[C@H](C)/C=C/C=C/C=C/1C", "note": "[rapamycin]", "values": [
      {"measurement": "concentration of rapamycin present in the brain", "setting": "Raman spectroscopy of dmPFC tissue over time (FIG. 6)", "result": "continually increased until a stable concentration 604 was reached"},
      {"measurement": "ability to cross the blood-brain barrier of the brain", "setting": "rapamycin added to perfusate by syringe pump, Raman spectroscopy of dmPFC tissue (FIG. 6)", "result": "able to cross the blood-brain barrier"}
    ]}
  ]
}
